Assay results reported in patent publication US8158670B2 (priority 1996, dated 2012).
Read-outs that look alike come from different tables or passages of the source.

Columns and labels:
[1] = system: Vascular smooth muscle cells (BO54); test: Scratch-migration assay; format: cell-based, baboon; set-up: key: −=no migration; +1=minimal; +2=mild; +3=moderate; +4=marked (maximum density; limit of cell contact inhibition) migration
Procedure: Vascular smooth muscle cells (BO54) were derived from explants of baboon aortic smooth muscle, as described in Example 10. The cells were grown in flat bottom, six well tissue culture plates, which hold about 5 ml of medium. The vascular smooth muscle cells were plated at 200,000 cells/well and placed at 37° C. in a humidified 5% CO2 incubator for 18 hours. The wells were then scratched with a sterile portion of a single edge razor blade that was held by clamp or pliers and was brought aseptically into contact with the bottom of the well at a 90° angle. The cells from a small area along the scratch were removed by a sterile cotton tipped applicator while the blade was in contact with the bottom of the well. After incubation, the presence of cells in the “scratched” area is indicative of cell migration across the scratch line.
Briefly, a stock solution of cytochalasin B (Sigma Chemical Co.) in dimethyl sulfoxide (DMSO) at 1 mg/ml was prepared. Test dilutions of cytochalasin B or control medium were added. Each experiment included two sets of plates:
A set: Test agent exposure for 1, 3, 6, 8 and 10 days only; and
B set: Test agent exposure for 1, 3, 6, 8 and 10 days, followed by a seven day recovery time with control medium.
Both sets of plates were fixed (10% formalin in PBS) and stained (0.02% crystal violet) at the end of the timed exposures. Test concentrations for cytochalasin B were 1, 0.1 and 0.01 μg/ml, and a negative medium control was included. Fresh medium and drug were supplied 3 times per week.
In this Table, “M” indicates Migration Grade. wherein −=no migration; +1=minimal; +2=mild; +3=moderate; and +4=marked (maximum density; limit of cell contact inhibition) migration of vascular smooth muscle cells into the cleared area adjacent to the scratch. In this Table, “T” denotes a morphological Toxicity Grade, wherein −=no toxicity; +1=minimal; +2=mild; +3=moderate; and +4=marked toxicity. The migration results are expressed as “Grade in the Cleared Area of the Well/Grade in an Undisturbed Region of the Well.” The toxicity values represent a grade for all cells in each well.

[2] = system: vascular smooth muscle cells
[3] = system: Vascular smooth muscle (BO54) cells; format: cell-based, baboon; conditions: 5 minute exposure

## C=C1[C@@H](C)[C@H]2[C@H](Cc3ccccc3)NC(=O)[C@]23OC(=O)/C=C/[C@H](O)CCC[C@@H](C)C/C=C/[C@H]3[C@@H]1O [cytochalasin B]
[1]; Day 3, Continuous Exposure, 1.0 μg/mL
  morphological Toxicity Grade: +3
[1]; Day 3 exposure, 7-day Recovery Post Exposure, 1.0 μg/mL
  morphological Toxicity Grade: +1
[1]; Day 6, Continuous Exposure, 0.1 μg/mL
  morphological Toxicity Grade: +1
[1]; Day 6 exposure, 7-day Recovery Post Exposure, 1.0 μg/mL
  morphological Toxicity Grade: +3
[1]; Day 8, Continuous Exposure, 0.1 μg/mL
  morphological Toxicity Grade: +1
[1]; Day 8 exposure, 7-day Recovery Post Exposure, 1.0 μg/mL
  morphological Toxicity Grade: +3
[1]; Day 10, Continuous Exposure, 0.1 μg/mL
  morphological Toxicity Grade: +1
[1]; Day 10 exposure, 7-day Recovery Post Exposure, 1.0 μg/mL
  morphological Toxicity Grade: +3
[2]; 5 min + 24 hrs, 0.1 ug
  morphological cytotoxicity grade: 0
[2]; 5 min + 24 hrs, 1 ug
  morphological cytotoxicity grade: 0.5
[2]; 5 min + 24 hrs, 10 ug
  morphological cytotoxicity grade: 4
[2]; 5 min + 48 hrs, 0.1 ug
  morphological cytotoxicity grade: 0
[2]; 5 min + 48 hrs, 1 ug
  morphological cytotoxicity grade: 1
[2]; 5 min + 48 hrs, 10 ug
  morphological cytotoxicity grade: 4
[2]; 5 min + 72 hrs, 0.1 ug
  morphological cytotoxicity grade: 0
[2]; 5 min + 72 hrs, 1 ug
  morphological cytotoxicity grade: 1
[2]; 5 min + 72 hrs, 10 ug
  morphological cytotoxicity grade: 4.5
[2]; 5 min + 96 hrs, 0.1 ug
  morphological cytotoxicity grade: 0
[2]; 5 min + 96 hrs, 1 ug
  morphological cytotoxicity grade: 1
[2]; 5 min + 96 hrs, 10 ug
  morphological cytotoxicity grade: 5
[2]; 5 min + 120 hrs, 0.1 ug
  morphological cytotoxicity grade: 0
[2]; 5 min + 120 hrs, 1 ug
  morphological cytotoxicity grade: 1
[2]; 5 min + 120 hrs, 10 ug
  morphological cytotoxicity grade: 5
[2]; 24 hrs + 24 hrs, 0.01 ug
  morphological cytotoxicity grade: 0
[2]; 24 hrs + 24 hrs, 0.1 ug
  morphological cytotoxicity grade: 0.5
[2]; 24 hrs + 24 hrs, 1 ug
  morphological cytotoxicity grade: 3
[2]; 24 hrs + 48 hrs, 0.01 ug
  morphological cytotoxicity grade: 0
[2]; 24 hrs + 48 hrs, 0.1 ug
  morphological cytotoxicity grade: 1
[2]; 24 hrs + 48 hrs, 1 ug
  morphological cytotoxicity grade: 4
[2]; 24 hrs + 72 hrs, 0.01 ug
  morphological cytotoxicity grade: 0
[2]; 24 hrs + 72 hrs, 0.1 ug
  morphological cytotoxicity grade: 0.5
[2]; 24 hrs + 72 hrs, 1 ug
  morphological cytotoxicity grade: 4
[2]; 24 hrs + 96 hrs, 0.01 ug
  morphological cytotoxicity grade: 0
[2]; 24 hrs + 96 hrs, 0.1 ug
  morphological cytotoxicity grade: 0
[2]; 24 hrs + 96 hrs, 1 ug
  morphological cytotoxicity grade: 4
[2]; 24 hrs + 120 hrs, 0.01 ug
  morphological cytotoxicity grade: 0
[2]; 24 hrs + 120 hrs, 0.1 ug
  morphological cytotoxicity grade: 0
[2]; 24 hrs + 120 hrs, 1 ug
  morphological cytotoxicity grade: 4
[2]; Continuous 6 hrs, 0.01 ug
  morphological cytotoxicity grade: 0
[2]; Continuous 6 hrs, 0.1 ug
  morphological cytotoxicity grade: 0
[2]; Continuous 6 hrs, 1 ug
  morphological cytotoxicity grade: 3
[2]; Continuous 24 hrs (first listing, r16), 0.01 ug
  morphological cytotoxicity grade: 0
[2]; Continuous 24 hrs (first listing, r16), 0.1 ug
  morphological cytotoxicity grade: 1
[2]; Continuous 24 hrs (first listing, r16), 1 ug
  morphological cytotoxicity grade: 3
[2]; Continuous 24 hrs (second listing, r22), 0.01 ug
  morphological cytotoxicity grade: 0
[2]; Continuous 24 hrs (second listing, r22), 0.1 ug
  morphological cytotoxicity grade: 0
[2]; Continuous 24 hrs (second listing, r22), 1 ug
  morphological cytotoxicity grade: 3
[2]; Continuous 48 hrs, 0.01 ug
  morphological cytotoxicity grade: 0
[2]; Continuous 48 hrs, 0.1 ug
  morphological cytotoxicity grade: 1
[2]; Continuous 48 hrs, 1 ug
  morphological cytotoxicity grade: 3
[3]
  minimum effective dose (MED): 10 µg/mL
